From PubChem BioAssay AID248 (DTP/NCI, 2004)
Values joined by “and” are separate entries in the source; they are usually repeats but may differ in a detail not shown here. Equal values may be shown once. Inconclusive results and toxic doses are left out. No stated cut-off is given here; in the data, active means T/C of 150% or more; inactive means T/C below 125%.

System: L1210 leukemia ip in BDF1 mice, survival T/C
Experiment: NCI In Vivo Anticancer Drug Screen. Data for tumor model L1210 Leukemia (intraperitoneal) in B6D2F1 (BDF1) mice
Settings: endpoint: mean survival time, higher = longer survival
Procedure, shortened: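 Antitumor effect is assessed in tumor-bearing animals. Survival in the compound arm is compared with a vehicle-dosed control arm and expressed as their quotient.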

[1] = dose: 100.0 mg/kg/injection, schedule: Q01DX001 (ip), vehicle: saline with Tween-80
[2] = dose: 100.0 mg/kg/injection, schedule: Q01DX009 (ip), vehicle: saline with Tween-80
[3] = dose: 200.0 mg/kg/injection, schedule: Q01DX009 (ip), vehicle: saline with Tween-80
[4] = dose: 400.0 mg/kg/injection, schedule: Q01DX009 (ip), vehicle: saline with Tween-80
[5] = dose: 100.0 mg/kg/injection, schedule: Q04DX003 (ip), vehicle: saline with Tween-80
[6] = dose: 200.0 mg/kg/injection, schedule: Q04DX003 (ip), vehicle: saline with Tween-80
[7] = dose: 400.0 mg/kg/injection, schedule: Q04DX003 (ip), vehicle: saline with Tween-80
[8] = dose: 50.0 mg/kg/injection, schedule: Q01DX009 (ip), vehicle: saline
[9] = dose: 100.0 mg/kg/injection, schedule: Q01DX009 (ip), vehicle: saline
[10] = dose: 200.0 mg/kg/injection, schedule: Q01DX009 (ip), vehicle: saline
[11] = dose: 100.0 mg/kg/injection, schedule: Q01DX001 (ip), vehicle: carboxymethylcellulose (CMC)
[12] = dose: 100.0 mg/kg/injection, schedule: Q01DX001 (ip), vehicle: saline
[13] = dose: 200.0 mg/kg/injection, schedule: Q01DX001 (ip), vehicle: carboxymethylcellulose (CMC)
[14] = dose: 200.0 mg/kg/injection, schedule: Q01DX001 (ip), vehicle: saline
[15] = dose: 400.0 mg/kg/injection, schedule: Q01DX001 (ip), vehicle: carboxymethylcellulose (CMC)
[16] = dose: 400.0 mg/kg/injection, schedule: Q01DX001 (ip), vehicle: saline
[17] = dose: 50.0 mg/kg/injection, schedule: Q01DX009 (ip), vehicle: Klucel (hydroxypropylcellulose) (HPC)

Measured: T/C

CCCCCCCCCCCCCC(CCCCCCCCCCCC)CCCCCCCCCCCC
inactive: [1] 92 % of control | dose: 200.0 mg/kg/injection, schedule: Q01DX001 (ip), vehicle: saline with Tween-80 87 % of control | dose: 400.0 mg/kg/injection, schedule: Q01DX001 (ip), vehicle: saline with Tween-80 87 % of control

COc1ccc(C)cc1NC(=O)Nc1ccco1
inactive: [2] 97 % of control | [3] 92 % of control | [4] 90 % of control

O=C(O)/C(=C\c1ccc(Cl)cc1)c1ccc(C(F)(F)F)cc1[N+](=O)[O-]
inactive: [5] 96 % of control | [6] 94 % of control | [7] 92 % of control

CCOC(=O)C(=CNc1ccccn1)C(=O)OCC
inactive: [2] 100 % of control | [5] 93 % of control | [3] 104 % of control | [6] 93 % of control | [4] 97 % of control | [7] 97 % of control

CC(=O)c1ccc(CC2CC3CCC2C3)cc1 (stereo unspecified)
inactive: dose: 100.0 mg/kg/injection, schedule: Q01DX001 (ip), vehicle: Klucel (hydroxypropylcellulose) (HPC) 112 % of control | dose: 100.0 mg/kg/injection, schedule: Q04DX003 (ip), vehicle: Klucel (hydroxypropylcellulose) (HPC) 94 % of control | dose: 200.0 mg/kg/injection, schedule: Q01DX001 (ip), vehicle: Klucel (hydroxypropylcellulose) (HPC) 96 % of control | dose: 200.0 mg/kg/injection, schedule: Q04DX003 (ip), vehicle: Klucel (hydroxypropylcellulose) (HPC) 89 % of control | dose: 400.0 mg/kg/injection, schedule: Q01DX001 (ip), vehicle: Klucel (hydroxypropylcellulose) (HPC) 89 % of control | dose: 400.0 mg/kg/injection, schedule: Q04DX003 (ip), vehicle: Klucel (hydroxypropylcellulose) (HPC) 98 % of control

CCOCc1c(COc2ccc(Br)cc2)n(CC)c2ccccc12
inactive: [2] 93 % of control | [3] 90 % of control | [4] 90 % of control

O=C(Cc1ccccc1)NCCO
inactive: [8] 103 % of control | [9] 98 % of control | dose: 100.0 mg/kg/injection, schedule: Q04DX002 (ip), vehicle: saline 109 % of control | [10] 101 % of control | dose: 200.0 mg/kg/injection, schedule: Q04DX002 (ip), vehicle: saline 109 % of control | dose: 400.0 mg/kg/injection, schedule: Q01DX009 (ip), vehicle: saline 97 % of control

C=C1C[C@]23C[C@@]1(O)CC[C@H]2[C@@]12C=C[C@H](O)[C@@](C)(C(=O)O1)[C@H]2[C@@H]3C(=O)O
inactive: [11] 94 % of control | [12] 104 % of control | dose: 100.0 mg/kg/injection, schedule: Q01DX009 (ip), vehicle: acetone 97 % of control | [13] 96 % of control | [14] 104 % of control | dose: 200.0 mg/kg/injection, schedule: Q01DX009 (ip), vehicle: acetone 94 % of control | [15] 94 % of control | [16] 104 % of control | dose: 400.0 mg/kg/injection, schedule: Q01DX009 (ip), vehicle: acetone 95 % of control | dose: 800.0 mg/kg/injection, schedule: Q01DX009 (ip), vehicle: acetone 92 % of control

COC(=O)CCC(C(=O)OC)P(=O)(OC(C)C)OC(C)C (stereo unspecified)
inactive: [12] 96 % of control | [14] 102 % of control | [16] 86 % of control

OC1CSC2=[N+]1CCS2 (stereo unspecified)
inactive: dose: 75.0 mg/kg/injection, schedule: Q01DX001 (ip), vehicle: saline 98 % of control | dose: 150.0 mg/kg/injection, schedule: Q01DX001 (ip), vehicle: saline 112 % of control | dose: 300.0 mg/kg/injection, schedule: Q01DX001 (ip), vehicle: saline 111 % of control

CCCCCCCCCCCCCCCCCCNC(=S)N/N=C/c1ccccc1[N+](=O)[O-]
inactive: dose: 111.0 mg/kg/injection, schedule: Q01DX Z (ip), vehicle: methylcellulose (MC) 90 % of control | dose: 166.0 mg/kg/injection, schedule: Q01DX Z (ip), vehicle: methylcellulose (MC) 86 % of control

O=C1C(=Cc2ccc([N+](=O)[O-])cc2)C(=O)c2ccccc21
inactive: dose: 12.5 mg/kg/injection, schedule: Q01DX009 (ip), vehicle: Klucel (hydroxypropylcellulose) (HPC) 93 % of control | dose: 12.5 mg/kg/injection, schedule: Q04DX003 (ip), vehicle: Klucel (hydroxypropylcellulose) (HPC) 97 % of control | dose: 25.0 mg/kg/injection, schedule: Q01DX009 (ip), vehicle: Klucel (hydroxypropylcellulose) (HPC) 88 % of control | dose: 25.0 mg/kg/injection, schedule: Q04DX003 (ip), vehicle: Klucel (hydroxypropylcellulose) (HPC) 90 % of control | [17] 98 % of control | dose: 50.0 mg/kg/injection, schedule: Q04DX003 (ip), vehicle: Klucel (hydroxypropylcellulose) (HPC) 93 % of control

CCCCCCCCCCOC(=O)COc1ccc(C(C)(C)C)cc1
inactive: [9] 92 % of control | [10] 98 % of control

COc1cc2c(c(OC)c1OC)-c1ccc(SC)c(=O)cc1C(N=C(NC1OCC(OC(C)=O)C(OC(C)=O)C1OC(C)=O)SN(NC(=O)OCc1ccccc1)C(=O)OCc1ccccc1)CC2 (stereo unspecified)
inactive: dose: 25.0 mg/kg/injection, schedule: Q01DX001 (ip), vehicle: saline with Tween-80 95 % of control | dose: 50.0 mg/kg/injection, schedule: Q01DX001 (ip), vehicle: saline with Tween-80 95 % of control | [1] 100 % of control

CCOC1=CC(=O)CCC1
inactive: [8] 98 % of control | [9] 94 % of control | dose: 100.0 mg/kg/injection, schedule: Q04DX003 (ip), vehicle: saline 98 % of control | [10] 100 % of control | dose: 200.0 mg/kg/injection, schedule: Q04DX003 (ip), vehicle: saline 110 % of control | dose: 400.0 mg/kg/injection, schedule: Q04DX003 (ip), vehicle: saline 101 % of control

CC[N+](C)(CC)CCN1c2ccccc2Sc2ccccc21
inactive: dose: 12.5 mg/kg/injection, schedule: Q04DX003 (ip), vehicle: saline 91 % of control | dose: 25.0 mg/kg/injection, schedule: Q04DX003 (ip), vehicle: saline 94 % of control and 86 % of control | dose: 50.0 mg/kg/injection, schedule: Q04DX003 (ip), vehicle: saline 86 % of control and 88 % of control

O=C(C(c1ccccn1)=P(c1ccccc1)(c1ccccc1)c1ccccc1)c1ccc([N+](=O)[O-])cc1
inactive: [17] 88 % of control | dose: 100.0 mg/kg/injection, schedule: Q01DX009 (ip), vehicle: Klucel (hydroxypropylcellulose) (HPC) 91 % of control | dose: 200.0 mg/kg/injection, schedule: Q01DX009 (ip), vehicle: Klucel (hydroxypropylcellulose) (HPC) 98 % of control

OCCSSSCCO
inactive: dose: 75.0 mg/kg/injection, schedule: Q01DX001 (ip), vehicle: other 105 % of control | dose: 150.0 mg/kg/injection, schedule: Q01DX001 (ip), vehicle: other 115 % of control

CCCCC1CN=C(c2ccc(NC(=O)c3ccc(C(=O)Nc4ccc(C5=NCC(CCCC)CN5)cc4)c(Cl)c3)cc2)NC1 (stereo unspecified)
inactive: dose: 5.0 mg/kg/injection, schedule: Q01DX015 (ip), vehicle: methylcellulose (MC) 109 % of control | dose: 22.5 mg/kg/injection, schedule: Q01DX015 (ip), vehicle: methylcellulose (MC) 123 % of control | dose: 45.0 mg/kg/injection, schedule: Q01DX015 (ip), vehicle: methylcellulose (MC) 111 % of control | dose: 62.0 mg/kg/injection, schedule: Q01DX015 (ip), vehicle: methylcellulose (MC) 109 % of control

CCOP(=S)(N1CC1)N1CC1
inactive: [11] 95 % of control | [13] 95 % of control | [15] 94 % of control

O=C(O)C1C(C(=O)O)C2(Cl)C(Cl)=C(Cl)C1(Cl)C2(Cl)Cl.[Cu+2] (stereo unspecified)
inactive: dose: 25.0 mg/kg/injection, schedule: Q01DX001 (ip), vehicle: Klucel (hydroxypropylcellulose) (HPC) 92 % of control | dose: 50.0 mg/kg/injection, schedule: Q01DX001 (ip), vehicle: Klucel (hydroxypropylcellulose) (HPC) 97 % of control | dose: 50.0 mg/kg/injection, schedule: Q01DX009 (ip), vehicle: saline sonified 95 % of control

COc1ccc(/C=N\NC(=O)c2ccc(Cl)c(Cl)c2)cc1OC
inactive: dose: 50.0 mg/kg/injection, schedule: Q01DX009 (ip), vehicle: saline with Tween-80 117 % of control | [2] 93 % of control | [3] 90 % of control
